According to patent US20240165243A1, “EGFR DEGRADERS AND METHODS OF USE” (BeiGene Switzerland GmbH, priority 2021, published 2024):

Tested on: EGFR (Del19/T790M/C797S)
Test: Cell degradation HTRF assay, H1975-clone #28 cells
Type: cell-based
Details: H1975-clone #28 (Del19/T790M/C797S) cells, 16 h treatment; for DC50: HTRF, read-out: H1975-clone#28 DTC DC50; for H1975-clone#28 DTC Dmax (%): maximum percentage of degradation
Description: Cell Degradation of Example 124-189
H1975-#28 and H1975-#25 cells are treated with compounds diluted in 0.2% DMSO cell culture medium on day 2, incubate for 16 h, 37° C., 5% CO2. the final concentration of compounds in all assay is start with 10 uM, 5-fold dilution, total 8 doses were included.
After 16 h treatment, add HTRF lysis buffer to each well; seal the plate and incubate 1 hour at room temperature on a plate shaker; Once the cells are lysed, 16 μL of cell lysate are transferred to a PE 384-well HTRF detection plate; 4 μL of pre-mixed HTRF antibodies are added to each well; Cover the plate with a plate sealer, spin 1000 rpm for 1 min, Incubate overnight at room temperature; Read on BMG PheraStar with HTRF protocol (337 nm-665 nm-620 nm).
The inhibition (degradation) percentage of the compound was calculated by the following equation:
Inhibition percentage of Compound=100−100×(Signal−low control)/(High control−low control), wherein signal=each test compound group.
High control=Cell group with added DMSO and without compound, indicating microplate readings without EGFR degradation;
Dmax is the maximum percentage of inhibition (degradation).
The IC50 (DC50) value of a compound can be obtained by fitting the following equation
Y=Bottom+(TOP−Bottom)/(1+((IC50/X)^hillslope))
Wherein, X and Y are known values, and IC50, Hillslope, Top and Bottom are the parameters obtained by fitting with software. Y is the inhibition percentage (calculated from the equation), X is the concentration of the compound; IC50 is the concentration of the compound when the 50% inhibition is reached. The smaller the IC50 value is, the stronger the inhibitory ability of the compound is. Vice versa, the higher the IC50 value is, the weaker the ability the inhibitory ability of the compound is; Hillslope represents the slope of the fitted curve, generally around 1*; Bottom represents the minimum value of the curve obtained by data fitting, which is generally 0%±20%; Top represents the maximum value of the curve obtained by data fitting, which is generally 100%±20%. The experimental data were fitted by calculating and analyzing with Dotmatics data analysis software. When Dmax<50%, DC50 will be automatically assigned as larger than […].

SMILES	DC50	H1975-clone#28 DTC Dmax (%)
CCc1cc(Nc2ncc(Br)c(Nc3cnc4ccccc4c3P(C)(C)=O)n2)c(OC)cc1N1CCC(N2CCN(CCc3cccc4c3n(CC)c(=O)n4C3CCC(=O)NC3=O)CC2)CC1 (stereo not shown) [Example 163, 3-(4-(2-(4-(1-(4-((5-bromo-4-((4-(dimethylphosphoryl)quinolin-3-yl)amino)pyrimidin-2-yl)amino)-2-ethyl-5-methoxyphenyl)piperidin-4-yl)piperazin-1-yl)ethyl)-3-ethyl-2-oxo-2,3-dihydro-1H-benzo[d]imidazol-1-yl)piperidine-2,6-dione]	1.1 nM	86%
CCOc1cc(N2CCC(N3CCN(CCc4cccc5c4C(C)(C)C(=O)N5C4CCC(=O)NC4=O)CC3)CC2)c(CC)cc1Nc1ncc(Br)c(Nc2cnc3ccccc3c2P(C)(C)=O)n1 (stereo not shown) [Example 138, 3-(4-(2-(4-(1-(4-((5-bromo-4-((4-(dimethylphosphoryl)quinolin-3-yl)amino)pyrimidin-2-yl)amino)-5-ethoxy-2-ethylphenyl)piperidin-4-yl)piperazin-1-yl)ethyl)-3,3-dimethyl-2-oxoindolin-1-yl)piperidine-2,6-dione]	3 nM	83%
CCc1cc(Nc2ncc(Br)c(Nc3cnc4ccccc4c3P(C)(C)=O)n2)c(OCC(F)(F)F)cc1N1CCC(N2CCN(CCC3CCN(c4cc(F)c(C5CCC(=O)NC5=O)c(F)c4)CC3)CC2)CC1 (stereo not shown) [Example 186, 3-(4-(4-(2-(4-(1-(4-((5-bromo-4-((4-(dimethylphosphoryl)quinolin-3-yl)amino)pyrimidin-2-yl)amino)-2-ethyl-5-(2,2,2-trifluoroethoxy)phenyl)piperidin-4-yl)piperazin-1-yl)ethyl)piperidin-1-yl)-2,6-difluorophenyl)piperidine-2,6-dione]	8 nM	72%
CCc1cc(Nc2ncc(Br)c(Nc3cnc4ccccc4c3P(C)(C)=O)n2)c(OC)cc1N1CCC(N2CCN(CCc3ccc4c(c3)oc(=O)n4C3CCC(=O)NC3=O)CC2)CC1 (stereo not shown) [Example 176, 3-(6-(2-(4-(1-(4-((5-bromo-4-((4-(dimethylphosphoryl)quinolin-3-yl)amino)pyrimidin-2-yl)amino)-2-ethyl-5-methoxyphenyl)piperidin-4-yl)piperazin-1-yl)ethyl)-2-oxobenzo[d]oxazol-3(2H)-yl)piperidine-2,6-dione]	1.6 nM	73%
CCc1cc(Nc2ncc(Br)c(Nc3cnc4c(F)cccc4c3P(C)(C)=O)n2)c(OC)cc1N1CCC(N2CCN(C(=O)C3CCN(c4ccc5c(c4)C(C)(C)C(=O)N5C4CCC(=O)NC4=O)CC3)CC2)CC1 (stereo not shown) [Example 182, 3-(5-(4-(4-(1-(4-((5-bromo-4-((4-(dimethylphosphoryl)-8-fluoroquinolin-3-yl)amino)pyrimidin-2-yl)amino)-2-ethyl-5-methoxyphenyl)piperidin-4-yl)piperazine-1-carbonyl)piperidin-1-yl)-3,3-dimethyl-2-oxoindolin-1-yl)piperidine-2,6-dione]	0.8 nM	56%
CCc1cc(Nc2ncc(Br)c(Nc3cnc4ccccc4c3P(C)(C)=O)n2)c(OC)cc1N1CCC(N2CCN(CCc3ccc(F)c4c3oc(=O)n4[C@H]3CCC(=O)NC3=O)CC2)CC1 [Example 126, (S)-3-(7-(2-(4-(1-(4-((5-bromo-4-((4-(dimethylphosphoryl)quinolin-3-yl)amino)pyrimidin-2-yl)amino)-2-ethyl-5-methoxyphenyl)piperidin-4-yl)piperazin-1-yl)ethyl)-4-fluoro-2-oxobenzo[d]oxazol-3(2H)-yl)piperidine-2,6-dione]	1.3 nM	84%
CCc1cc(Nc2ncc(Br)c(Nc3cnc4ccccc4c3P(C)(C)=O)n2)c(OC)cc1N1CCC(N2CCN(C(=O)C3CN(c4cccc5c4C(C)(C)C(=O)N5C4CCC(=O)NC4=O)C3)CC2)CC1 (stereo not shown) [Example 169, 3-(4-(3-(4-(1-(4-((5-bromo-4-((4-(dimethylphosphoryl)quinolin-3-yl)amino)pyrimidin-2-yl)amino)-2-ethyl-5-methoxyphenyl)piperidin-4-yl)piperazine-1-carbonyl)azetidin-1-yl)-3,3-dimethyl-2-oxoindolin-1-yl)piperidine-2,6-dione]	4.6 nM	65%
CCc1cc(Nc2ncc(Br)c(Nc3cnc4ccccc4c3P(C)(C)=O)n2)c(OCC(F)(F)F)cc1N1CCC(N2CCN(CCc3cc(F)c(C4CCC(=O)NC4=O)c(F)c3)CC2)CC1 (stereo not shown) [Example 187, 3-(4-(2-(4-(1-(4-((5-bromo-4-((4-(dimethylphosphoryl)quinolin-3-yl)amino)pyrimidin-2-yl)amino)-2-ethyl-5-(2,2,2-trifluoroethoxy)phenyl)piperidin-4-yl)piperazin-1-yl)ethyl)-2,6-difluorophenyl)piperidine-2,6-dione]	3.3 nM	69%
CCc1cc(Nc2ncc(Br)c(Nc3cnc4ccccc4c3P(C)(C)=O)n2)c(OC)cc1N1CCC(N2CCN(CCc3cccc4c3n(C3CC3)c(=O)n4C3CCC(=O)NC3=O)CC2)CC1 (stereo not shown) [Example 155, 3-(4-(2-(4-(1-(4-((5-bromo-4-((4-(dimethylphosphoryl)quinolin-3-yl)amino)pyrimidin-2-yl)amino)-2-ethyl-5-methoxyphenyl)piperidin-4-yl)piperazin-1-yl)ethyl)-3-cyclopropyl-2-oxo-2,3-dihydro-1H-benzo[d]imidazol-1-yl)piperidine-2,6-dione]	0.7 nM	85%
CCc1cc(Nc2ncc(Br)c(Nc3cnc4ccccc4c3P(C)(C)=O)n2)c(OC)cc1N1CCC(N2CCN(CCc3ccc4c(c3)C(C)(C)C(=O)N4C3CCC(=O)NC3=O)CC2)CC1 (stereo not shown) [Example 175, 3-(5-(2-(4-(1-(4-((5-bromo-4-((4-(dimethylphosphoryl)quinolin-3-yl)amino)pyrimidin-2-yl)amino)-2-ethyl-5-methoxyphenyl)piperidin-4-yl)piperazin-1-yl)ethyl)-3,3-dimethyl-2-oxoindolin-1-yl)piperidine-2,6-dione]	5.5 nM	47%
CCc1cc(Nc2ncc(Br)c(Nc3cnc4cc(F)ccc4c3P(C)(C)=O)n2)c(OC)cc1N1CCC(N2CCN(CCc3cccc4c3n(C)c(=O)n4C3CCC(=O)NC3=O)CC2)CC1 (stereo not shown) [Example 167, 3-(4-(2-(4-(1-(4-((5-bromo-4-((4-(dimethylphosphoryl)-7-fluoroquinolin-3-yl)amino)pyrimidin-2-yl)amino)-2-ethyl-5-methoxyphenyl)piperidin-4-yl)piperazin-1-yl)ethyl)-3-methyl-2-oxo-2,3-dihydro-1H-benzo[d]imidazol-1-yl)piperidine-2,6-dione]	0.8 nM	74%
CCc1cc(Nc2ncc(Br)c(Nc3cnc4ccccc4c3P(C)(C)=O)n2)c(OC)cc1N1CCC(N2CCN(C(=O)[C@H]3CCN(c4ccc5c(c4)C(C)(C)C(=O)N5C4CCC(=O)NC4=O)C3)CC2)CC1 (stereo partly drawn) [Example 168, 3-(5-((S)-3-(4-(1-(4-((5-bromo-4-((4-(dimethylphosphoryl)quinolin-3-yl)amino)pyrimidin-2-yl)amino)-2-ethyl-5-methoxyphenyl)piperidin-4-yl)piperazine-1-carbonyl)pyrrolidin-1-yl)-3,3-dimethyl-2-oxoindolin-1-yl)piperidine-2,6-dione]	2 nM	47%
CCc1cc(Nc2ncc(Br)c(Nc3cnc4ccccc4c3P(C)(C)=O)n2)c(OC)cc1N1CCC(N2CCN(CCc3cccc4c3n(CC)c(=O)n4C3CCC(=O)NC3=O)CC2)CC1 (stereo not shown) [Example 135, 3-(4-(2-(4-(1-(4-((5-bromo-4-((4-(dimethylphosphoryl)quinolin-3-yl)amino)pyrimidin-2-yl)amino)-2-ethyl-5-methoxyphenyl)piperidin-4-yl)piperazin-1-yl)ethyl)-3-ethyl-2-oxo-2,3-dihydro-1H-benzo[d]imidazol-1-yl)piperidine-2,6-dione]	0.9 nM	83%
CCc1cc(Nc2ncc(Br)c(Nc3cnc4ccccc4c3P(C)(C)=O)n2)c(OC)cc1N1CCC(N2CCN(CCc3ccc4c(oc(=O)n4C4CCC(=O)NC4=O)c3F)CC2)CC1 (stereo not shown) [Example 142, 3-(6-(2-(4-(1-(4-((5-bromo-4-((4-(dimethylphosphoryl)quinolin-3-yl)amino)pyrimidin-2-yl)amino)-2-ethyl-5-methoxyphenyl)piperidin-4-yl)piperazin-1-yl)ethyl)-7-fluoro-2-oxobenzo[d]oxazol-3(2H)-yl)piperidine-2,6-dione]	0.9 nM	81%
